{"source": "patent US10772929B2", "about": "“Use of peptide compounds in treating acute pancreatitis” (SHENZHEN HIGHTIDE BIOPHARMACEUTICAL, LTD., priority 2017, dated 2020)", "key": {"[1]": {"system": "sodium taurocholate-induced severe acute pancreatitis (SAP) rat model", "experiment": "Sodium taurocholate-induced severe acute pancreatitis (SAP) rat model", "type": "in vivo", "conditions": "SAP rats; for Survival Rate: 3-day experiment; for Survival rate of model animals versus model control (in words): all three doses (0.05, 0.25, 1.25 mg/kg); for Pathological score: Area of necrosis / Pathological score: Edema / Pathological score: Hemorrhage / Pathological score: Inflammation: Schmidt's scoring standard 0-4; for Pathological score: Total damage: sum of the four items", "text": "After at least 7 days of accumulation period, 60 female and 70 male Sprague-Dawley (SD) rats were included in the study. Five females and eight males were randomly selected as the control group. Another five females and eight males were randomly selected as the sham group, the abdominal cavity was opened for each of the rats in the sham group, and a cotton swab was used to gently flip the duodenum and pancreas, then the abdominal muscle and skin were sutured after the completion of the operation The remaining animals were assigned to establish the severe acute pancreatitis (SAP) rat model using the method of retrograde injection of sodium taurocholate solution with 35 mg/kg dosage into the biliopancreatic duct. The model animals were randomly divided into 4 groups of 24 rats each (male:female=1:1) on the day after model establishment, which were the model control group (vehicle), and low dose group of peptide 12 (0.05 mg/kg), middle dose group of peptide 12 (0.25 mg/kg) and high dose group of peptide 12 (1.25 mg/kg), peptide 12 was dissolved in saline.\nThe animals were subcutaneously injected once on the day after the establishment of the model, once on the second day, for a total of 2 consecutive days, and the experimental period was 3 days. During the experiment, the animals were observed by cage, including if there is any animal death or near death, mental state, behavioral activities, fecal characteristics, skin, hair, eyes, ears, nose, abdomen, external genitals, anus, limbs, feet, respiration, etc. At the end of the experiment, all the surviving rats were weighed and blood samples were collected to detect the levels of amylase, calcium and lipase in serum of rats in each group. The general anatomical observation was made, focusing on the status of pancreas, gastrointestinal tract, ascites, bile duct obstruction, pulmonary congestion and saponification spots. The pancreas was preserved in 10% formalin fixative for further pathological analysis.\nThe severity of pancreatic injury was assessed by preparing HE slices of pancreas and using Schmidt's scoring standard to evaluate the pathological changes of pancreatic edema, inflammation, hemorrhage and necrosis. The total pancreatic injury calculated as the sum of the above four items."}, "[2]": {"system": "caerulein-induced acute pancreatitis (AP) model", "experiment": "Caerulein-induced acute pancreatitis (AP) mouse model", "type": "in vivo, BALB/c mice", "conditions": "caerulein AP mice; for Pathological score: Area of necrosis / Pathological score: Edema / Pathological score: Hemorrhage / Pathological score: Inflammation: Schmidt's scoring standard; for Edema of the pancreas versus model group (in words): FIG. 12; for Inflammation of the pancreas versus model group (in words): FIG. 13; for Level of amylase versus model control / Level of lipase versus model control: doses of 0.025, 0.25, 2.5 and 25 mg/kg; for Level of amylase versus model control: FIG. 10, P<0.001; for Level of lipase versus model control: FIG. 11, P<0.001", "protocol": "Male BALB/c mice, aged 6-8 weeks, were accumulated for more than 7 days. After fasting overnight, 10 animals were randomly selected as normal control. The remaining animals were injected with caerulein 50 μg/kg intraperitoneally every 1 hour for 10 times to induce acute pancreatitis, and they were randomly divided into model control group and peptide 12 treatment groups with the dosage of 0.025, 0.25, 2.5 and 25 mg/kg respectively, there were 10 mice in each group. Mice were given corresponding doses of peptide 12 or normal saline 5 minutes before the fourth injection of caerulein.\nThe experiment was finished one hour after the 10th injection of caerulein, blood samples were collected for the determination of amylase and lipase levels. Pancreas were weighed and fixed in 10% formalin solution for subsequent pathological analysis.\nThe pancreatic index was calculated as pancreatic weight/body weight, which reflected the severity of pancreatic edema. The statistical results were shown in FIG. 9, in which ### means P<0.001 compared with the normal control group; ** means P<0.01 compared with the model control group, *** means P<0.001 compared with the model control group. […] It should be noted that in FIG. 10, ### means P<0.001 compared with the normal control group; *** means P<0.001 compared with the model control group; in FIG. 11, ### means P<0.001 compared with the normal control group; *** means P<0.001 compared with the model control group.\nThe severity of pancreatic injury was assessed by preparing HE slices of pancreas and using Schmidt's scoring standard to evaluate the pathological changes of pancreatic edema, inflammation, hemorrhage and necrosis."}, "[3]": {"conditions": "listed as Ac-IGLHD PSHGT LPAGS-OH"}}}
{"substance": "Ac-IGLHDPSHGTLPAGS-OH [Peptide 12]", "values": [{"measurement": "Ratio (treatment group/model group) of survival", "setting": "[1]; 0.05 mg/kg", "result": 1.11}, {"measurement": "Survival Rate", "setting": "[1]; 0.05 mg/kg subcutaneous once daily for 2 days", "result": 41.7, "unit": "%"}, {"measurement": "Ratio (treatment group/model group) of survival", "setting": "[1]; 0.25 mg/kg", "result": 1.33}, {"measurement": "Survival Rate", "setting": "[1]; 0.25 mg/kg subcutaneous once daily for 2 days", "result": 50.0, "unit": "%"}, {"measurement": "Ratio (treatment group/model group) of survival", "setting": "[1]; 1.25 mg/kg", "result": 1.78}, {"measurement": "Survival Rate", "setting": "[1]; 1.25 mg/kg subcutaneous once daily for 2 days, 1.25 mg/kg", "result": 66.7, "unit": "%"}, {"measurement": "Pathological changes of pancreas caused by sodium taurocholate", "setting": "[1]; FIG. 4 to FIG. 8, dose-dependent", "result": "reduce"}, {"measurement": "Survival rate of model animals versus model control (in words)", "setting": "[1]; [3]", "result": "significantly increase"}, {"measurement": "Survival rate of model animals versus model control (in words)", "setting": "[1]; listed as peptide 12", "result": "improved"}, {"measurement": "Pathological score: Area of necrosis", "setting": "[1]; high dose (1.25 mg/kg)", "result": "1.13 ± 0.85"}, {"measurement": "Pathological score: Edema", "setting": "[1]; high dose (1.25 mg/kg)", "result": "1.21 ± 0.96"}, {"measurement": "Pathological score: Hemorrhage", "setting": "[1]; high dose (1.25 mg/kg)", "result": "1.15 ± 0.83"}, {"measurement": "Pathological score: Inflammation", "setting": "[1]; high dose (1.25 mg/kg)", "result": "2.67 ± 1.00"}, {"measurement": "Pathological score: Total damage", "setting": "[1]; high dose (1.25 mg/kg)", "result": "6.15 ± 2.69"}, {"measurement": "Pathological score: Area of necrosis", "setting": "[1]; low dose (0.05 mg/kg)", "result": "1.63 ± 0.74"}, {"measurement": "Pathological score: Edema", "setting": "[1]; low dose (0.05 mg/kg)", "result": "1.33 ± 0.86"}, {"measurement": "Pathological score: Hemorrhage", "setting": "[1]; low dose (0.05 mg/kg)", "result": "1.73 ± 0.89"}, {"measurement": "Pathological score: Inflammation", "setting": "[1]; low dose (0.05 mg/kg)", "result": "2.90 ± 1.22"}, {"measurement": "Pathological score: Total damage", "setting": "[1]; low dose (0.05 mg/kg)", "result": "7.60 ± 3.07"}, {"measurement": "Pathological score: Area of necrosis", "setting": "[1]; middle dose (0.25 mg/kg)", "result": "1.11 ± 0.78"}, {"measurement": "Pathological score: Edema", "setting": "[1]; middle dose (0.25 mg/kg)", "result": "1.44 ± 0.87"}, {"measurement": "Pathological score: Hemorrhage", "setting": "[1]; middle dose (0.25 mg/kg)", "result": "1.31 ± 0.87"}, {"measurement": "Pathological score: Inflammation", "setting": "[1]; middle dose (0.25 mg/kg)", "result": "2.83 ± 0.93"}, {"measurement": "Pathological score: Total damage", "setting": "[1]; middle dose (0.25 mg/kg)", "result": "6.69 ± 2.53"}, {"measurement": "Mental state and activity state of the surviving animals versus model control", "setting": "[1]; treatment groups 0.05, 0.25, 1.25 mg/kg", "result": "significantly better"}, {"measurement": "General anatomy of surviving animals (pancreas edema and liquefaction, gastrointestinal obstruction, ascites volume, bile duct obstruction, pulmonary congestion, saponification spots)", "setting": "[1]; treatment groups versus control group", "result": "improved with varying degrees"}, {"measurement": "Level of amylase in blood versus model control", "setting": "[1]; treatment groups, FIG. 2", "result": "decreased"}, {"measurement": "Level of lipase in blood versus model control", "setting": "[1]; treatment groups, FIG. 3", "result": "decreased"}, {"measurement": "Pathological score: Area of necrosis", "setting": "[2]; 0.025 mg/kg", "result": "0.00 ± 0.00"}, {"measurement": "Pathological score: Edema", "setting": "[2]; 0.025 mg/kg", "result": "1.50 ± 0.84"}, {"measurement": "Pathological score: Hemorrhage", "setting": "[2]; 0.025 mg/kg", "result": "0.00 ± 0.00"}, {"measurement": "Pathological score: Inflammation", "setting": "[2]; 0.025 mg/kg", "result": "1.33 ± 0.52"}, {"measurement": "Pathological score: Area of necrosis", "setting": "[2]; 0.25 mg/kg", "result": "0.00 ± 0.00"}, {"measurement": "Pathological score: Edema", "setting": "[2]; 0.25 mg/kg", "result": "1.67 ± 0.82"}, {"measurement": "Pathological score: Hemorrhage", "setting": "[2]; 0.25 mg/kg", "result": "0.00 ± 0.00"}, {"measurement": "Pathological score: Inflammation", "setting": "[2]; 0.25 mg/kg", "result": "1.17 ± 0.75"}, {"measurement": "Pathological score: Area of necrosis", "setting": "[2]; 2.5 mg/kg", "result": "0.00 ± 0.00"}, {"measurement": "Pathological score: Edema", "setting": "[2]; 2.5 mg/kg", "result": "1.17 ± 1.17"}, {"measurement": "Pathological score: Hemorrhage", "setting": "[2]; 2.5 mg/kg", "result": "0.00 ± 0.00"}, {"measurement": "Pathological score: Inflammation", "setting": "[2]; 2.5 mg/kg", "result": "0.83 ± 0.75"}, {"measurement": "Pathological score: Area of necrosis", "setting": "[2]; 25 mg/kg", "result": "0.00 ± 0.00"}, {"measurement": "Pathological score: Edema", "setting": "[2]; 25 mg/kg", "result": "1.50 ± 0.55"}, {"measurement": "Pathological score: Hemorrhage", "setting": "[2]; 25 mg/kg", "result": "0.33 ± 0.82"}, {"measurement": "Pathological score: Inflammation", "setting": "[2]; 25 mg/kg", "result": "2.17 ± 0.75"}, {"measurement": "Edema of the pancreas versus model group (in words)", "setting": "[2]; [3]", "result": "significantly reduced"}, {"measurement": "Edema of the pancreas versus model group (in words)", "setting": "[2]; listed as peptide 12", "result": "alleviated"}, {"measurement": "Inflammation of the pancreas versus model group (in words)", "setting": "[2]; [3]", "result": "significantly reduced"}, {"measurement": "Inflammation of the pancreas versus model group (in words)", "setting": "[2]; listed as peptide 12", "result": "alleviated"}, {"measurement": "Level of amylase versus model control", "setting": "[2]", "result": "significantly lowered"}, {"measurement": "Level of amylase versus model control", "setting": "[2]; [3]", "result": "significantly reduced"}, {"measurement": "Level of lipase versus model control", "setting": "[2]", "result": "significantly lowered"}, {"measurement": "Level of lipase versus model control", "setting": "[2]; [3]", "result": "significantly reduced"}, {"measurement": "Pancreatic index (pancreatic weight/body weight) versus model control", "setting": "[2]; doses of 0.025, 0.25 and 2.5 mg/kg, dose dependent, FIG. 9", "result": "significantly decreased"}]}
